Values belong to the molecule of their own block, whether it stands above or below them.
Test: solvent given as SMILES

SMILES: CC(C)(C)c1ccc2c3c(c4ccc(C(C)(C)C)cc4c2c1)=[N+]1C(=C(c2ccccc2)c2cc4c5ccc(C(C)(C)C)cc5c5cc(C(C)(C)C)ccc5c4n2[B-]1(F)F)C=3
- emission maximum (in C1CCCCC1): 709 nm
- emission maximum (in C1CCOC1): 713 nm
- emission maximum (in CC#N): 712 nm
- emission maximum (in Cc1ccccc1): 713 nm
- emission maximum (in ClCCl): 716 nm

SMILES: Cc1cc(N2c3ccccc3C3(c4ccccc4-c4ccccc43)c3ccccc32)c(C)cc1-c1nc(-c2ccccc2)nc(-c2ccccc2)n1
- emission maximum (in Cc1ccccc1): 486 nm

SMILES: CCCCN1C(=S)c2cccc3cccc(c23)C1=S
- emission maximum (in Cc1ccccc1): 506 nm

SMILES: c1ccc(N(c2ccccc2)c2ccc3ccc4c(N(c5ccccc5)c5ccccc5)ccc5ccc2c3c54)cc1
- emission maximum (in Cc1ccccc1): 458 nm
- emission maximum (in ClCCl): 472 nm

SMILES: CCCCC(CC)Cn1c2cc(C#N)ccc2c2ccc(C#Cc3cc(C#Cc4ccc5c6ccc(C#N)cc6n(CC(CC)CCCC)c5c4)c4ccc5c(C#Cc6ccc7c8ccc(C#N)cc8n(CC(CC)CCCC)c7c6)cc(C#Cc6ccc7c8ccc(C#N)cc8n(CC(CC)CCCC)c7c6)c6ccc3c4c65)cc21 (configuration not stated)
- emission maximum (in ClCCl): 486 nm

SMILES: CN(C)CCN(Cc1c2ccccc2cc2ccccc12)c1ccc([N+](=O)[O-])cc1[N+](=O)[O-]
- emission maximum (in C1CCCCC1): 391 nm
- emission maximum (in C1CCOC1): 394 nm
- emission maximum (in CC#N): 394 nm
- emission maximum (in CC(C)=O): 393 nm
- emission maximum (in CCO): 394 nm
- emission maximum (in CN(C)C=O): 396 nm
- emission maximum (in CO): 392 nm
- emission maximum (in CS(C)=O): 398 nm
- emission maximum (in ClC(Cl)Cl): 394 nm
- emission maximum (in ClCCl): 393 nm

SMILES: Cc1ccccc1-c1c2ccc(=[N+]3CCOCC3)cc-2oc2cc(N3CCOCC3)ccc12
- emission maximum (in CCO): 582 nm
- emission maximum (in ClCCl): 575 nm

SMILES: Cc1cc(C)c(C)c(B(c2c(C)c(C)cc(C)c2C)c2c(C)c(C)c(N3c4ccccc4Oc4ccccc43)c(C)c2C)c1C
- emission maximum (in CC(C)(C)c1ccc(-n2c3ccc([Si](c4ccccc4)(c4ccccc4)c4ccccc4)cc3c3cc([Si](c4ccccc4)(c4ccccc4)c4ccccc4)ccc32)cc1): 478 nm

SMILES: CCC12C(=C3C(=C4c5ccc(-c6ccc(CO)cc6)cc5S(=O)(=O)C41CC)C(F)(F)C(F)(F)C3(F)F)c1ccc(-c3ccc(CO)cc3)cc1S2(=O)=O (configuration not stated)
- emission maximum (in C1COCCO1): 538.57 nm

SMILES: COc1ccc(C2=C3C(C)=CC(C=Cc4ccc(C(=O)OC5C[C@H]6CCC5(C)C6(C)C)cc4)=[N+]3[B-](F)(F)n3c(C)cc(C)c32)cc1 (some centres not stated)
- emission maximum (in Cc1ccccc1): 627 nm

SMILES: COC(=O)c1ccc(C2=C3C=c4sccc4=[N+]3[B-](F)(F)n3c2cc2sccc23)cc1
- emission maximum (in ClCCl): 604 nm

SMILES: CC1=CC(C)=[N+]2C1=C(c1ccccc1)c1c(C)cc(/C=C/c3ccccc3)n1[B-]2(F)F
- emission maximum (in CC#N): 569 nm

SMILES: [BH3-][P+]1(c2ccccc2)c2ccccc2-c2sc3ccccc3c21 (configuration not stated)
- emission maximum (in C1CCCCC1): 395 nm
- emission maximum (in CC#N): 401 nm
- emission maximum (in CCO): 400 nm
- emission maximum (in ClCCl): 400 nm

SMILES: Cc1cc(-c2ccccc2)cc(C)[o+]1
- emission maximum (in CC#N): 462 nm
- emission maximum (in ClCCl): 434 nm

SMILES: COc1ccc2c(c1)sc1[n+]2[B-](F)(F)OC(c2ccc(N(C)C)cc2)=N1
- emission maximum (in C1CCOC1): 466 nm
- emission maximum (in CC#N): 481 nm
- emission maximum (in CC(C)=O): 477 nm
- emission maximum (in Cc1ccccc1): 454 nm
- emission maximum (in ClCCl): 467 nm

SMILES: F[B-]1(F)Oc2c(ccc3c4c(ccc23)C=[N+](c2ccccc2)[B-](F)(F)O4)C=[N+]1c1ccccc1
- emission maximum (in Cc1ccccc1): 538 nm
- emission maximum (in ClCCl): 533 nm

SMILES: CCC1=C(C)C2=C(c3cc(C4=C5C(C)=C(CC)C(C)=[N+]5[B-](F)(F)n5c(C)c(CC)c(C)c54)cc(C4=C5C(C)=C(CC)C(C)=[N+]5[B-](F)(F)n5c(C)c(CC)c(C)c54)c3)c3c(C)c(CC)c(C)n3[B-](F)(F)[N+]2=C1C
- emission maximum (in C1CCOC1): 567 nm
- emission maximum (in CC#N): 556 nm
- emission maximum (in CN(C)C=O): 570 nm
- emission maximum (in Cc1ccccc1): 571 nm
- emission maximum (in ClC(Cl)Cl): 571 nm

SMILES: Cc1ccc(-n2c(-c3ccccc3[N-]S(=O)(=O)c3ccc(C)cc3)[nH+]c3c4ccccc4c4ccccc4c32)cc1
- emission maximum (in Cc1ccccc1): 506 nm

More lines, now with the values ahead:

- emission maximum (in CS(C)=O): 625 nm
- emission maximum (in ClCCl): 572 nm
SMILES: CCN(CC)c1ccc2c(c1)oc(=O)c1c(=O)oc3cc(C#Cc4ccc(C#N)cc4)ccc3c12

- emission maximum (in C1COCCO1): 429 nm
- emission maximum (in CC#N): 441 nm
- emission maximum (in CO): 438 nm
SMILES: COc1ccc(/C=C/C=C/C2=NC3C(=O)NC(N)=NC3N2[C@H]2C[C@H](O)[C@@H](CO)O2)cc1 (some centres not stated)

- emission maximum (in ClC(Cl)Cl): 670 nm
SMILES: c1ccc(N(c2ccccc2)c2ccc(-c3ccc(-c4ccc(-c5cccs5)c5nsnc45)s3)cc2)cc1

- emission maximum (in O): 350 nm
SMILES: [NH3+]C(Cc1c[nH]c2ccccc12)C(=O)[O-] (configuration not stated)

- emission maximum (in O): 562 nm
SMILES: CN1/C(=C/C=C/C2=[N+](CCCCCC(=O)O)c3ccc(S(=O)(=O)[O-])cc3C2(C)C)C(C)(C)c2cc(S(=O)(=O)[O-])ccc21

- emission maximum (in CC#N): 425 nm
- emission maximum (in CCCCOCCCC): 417 nm
- emission maximum (in CO): 428 nm
SMILES: Nc1ccc2ccc3cccc4ccc1c2c34

- emission maximum (in CO): 802 nm
SMILES: CC1(C)C(/C=C/C2=C(Cl)C(=C/C=C3/N(CCCS(=O)(=O)[O-])c4ccccc4C3(C)C)/CCC2)=[N+](CCCS(=O)(=O)[O-])c2ccccc21

- emission maximum (in CC#N): 521 nm
- emission maximum (in ClCCl): 678 nm
SMILES: CN(C)c1ccc(-c2cc3c(s2)c(C(=O)c2ccccc2)cc(=O)n3Cc2ccccc2)cc1

- emission maximum (in ClCCl): 489 nm
SMILES: c1ccc(N(c2ccccc2)c2ccc(-c3ccc(-c4cc(-c5ccccn5)nc(-c5ccccn5)c4)cc3)cc2)cc1

- emission maximum (in CC#N): 604 nm
SMILES: Cc1ccc(S(=O)(=O)Nc2cc(-c3ccc(N(C)C)cc3)sc2/C=C/c2ccccc2)cc1

- emission maximum (in C1CCCCC1): 444 nm
- emission maximum (in C1CCOC1): 540 nm
- emission maximum (in CC#N): 573 nm
- emission maximum (in CS(C)=O): 583 nm
- emission maximum (in ClCCl): 560 nm
SMILES: CN(C)c1ccc(C#Cc2ncnc3ccccc23)cc1

- emission maximum (in C1CCCCC1): 438.4 nm
- emission maximum (in ClC(Cl)Cl): 443 nm
- emission maximum (in ClCCl): 448 nm
SMILES: c1cc2cccc3c4cccc5cccc(c(c1)c23)c54

- emission maximum (in ClCCl): 652 nm
SMILES: Cc1ccc(-c2c3nc(c(-c4ccc(C)cc4)c4ccc([nH]4)c(-c4ccc(OC(=O)C(C)c5cccc(C(=O)c6ccccc6)c5)cc4)c4nc(c(-c5ccc(C)cc5)c5ccc2[nH]5)C=C4)C=C3)cc1 (configuration not stated)

- emission maximum (in CC#N): 661 nm
SMILES: F[B-]1(F)n2c(c(Sc3ccccc3)c3c2-c2ccccc2CC3)C=C2C(Sc3ccccc3)=C3CCc4ccccc4C3=[N+]21

- emission maximum (in C1CCCCC1): 370 nm
- emission maximum (in CO): 380 nm
SMILES: C/C(=C\c1ccccc1)c1nc2ccccc2o1

- emission maximum (in CCO): 506 nm
SMILES: CC1(C)Nc2cc3nc4cc(Cl)c(Cl)cc4nc3cc2N1

- emission maximum (in C1CCCCC1): 333 nm
SMILES: C[SiH](C)c1ccc([SiH](C)C)c2ccccc12

- emission maximum (in ClCCl): 592 nm
SMILES: COc1ccc(C2=C(C)C3=C(c4c(-c5ccccn5)nc5ccccn45)c4c(C)cc(C)n4[B-](F)(F)[N+]3=C2C)cc1

- emission maximum (in CCCCCC): 699 nm
- emission maximum (in ClCCl): 738 nm
SMILES: CC(C)[Si](C#Cc1c2cc3ccccc3cc2c(C#C[Si](C(C)C)(C(C)C)C(C)C)c2nc3ccccc3nc12)(C(C)C)C(C)C

- emission maximum (in C1CCOC1): 475 nm
SMILES: C(=C\c1cccc(/C=C/c2c3ccccc3cc3ccccc23)c1)/c1ccncc1

- emission maximum (in ClC(Cl)Cl): 438 nm
SMILES: C[Si](C)(C)C#C[Si](c1c2ccccc2cc2ccccc12)(c1c2ccccc2cc2ccccc12)c1c2ccccc2cc2ccccc12

- emission maximum (in ClCCl): 585 nm
SMILES: F[B-]1(F)n2c(cc3c4ccccc4c4ccccc4c32)-c2ccc3ccccc3[n+]21
